Results published in patent EP2272817A1, “PAI-1 INHIBITOR” (Institute of Medicinal Molecular Design, Inc., priority 2008, dated 2009).
Like-named read-outs stand apart in the source and are kept apart here.

Columns and labels:
[1] = tested on: Rat AV Shunt Model; test: Test Example 5: Anti-thrombotic Activity (Rat AV Shunt Model), thrombus weight; type: in vivo, Crlj: CD (SD) rats; conditions: orally for 4 days, male rats, n=5, average ± S.E., vehicle 72.7±2.7
Description: AV shunt model using 7-week old male Crlj: CD (SD) rats were prepared, and anti thrombotic activities when the compounds according to the present invention were administered orally were examined.
Required amount of the test compounds were weighed and suspended by adding 0.5 % CMC (carboxymethylcellulose)-Na solution little by little, and the solutions (10 mg/kg or 30 mg/kg solution) were prepared so that their final concentration became 2 mg/ml or 6 mg/ml using a graduated cylinder. 5 ml was prepared for 1 course.
To 7-week old Crlj: CD (SD) male rats, 5 ml/kg of vehicle (0.5 % CMC-Na solution) or 5 ml/kg of the administering solution of the test compound (10 mg/kg or 30 mg/kg) were administered orally for 4 days. The administration on the 4th day was carried out about 1 hour before the following perfusion start.
On the connected part where the silk thread was through, parafilm was wrapped around to avoid blood leakage. Rats were anesthetized with pentobarbital (50 mg/kg; intraperitoneally). Saline was filled in the above catheter, and each of the ends of the catheter was inserted in right carotid artery and […], respectively, and blood was circulated. 30 minutes later, the catheter was pinched with forceps to stop blood flow, and tube parts where the silk thread was through were cut and removed. The silk thread was carefully removed from the tubes, remaining wet weight was weighed after removing the liquid phase with filter paper, and further subtraction of the weight of the silk thread, gave the thrombus weight.
For the thrombus weight in each group, an average vale ± standard error (S.E.) was calculated. For the significance test between the vehicle administered group and the compound according to the present invention administered group, Dunnett's multiple comparison was carried out (significance level 5 %). For the test, the SAS System Release 8.2 (TS2MO) for Windows (Registered Trademark) (SAS Institute Inc.) and its coorperative system EXSAS Ver. 7.10 (Arm Systex Co. Ltd.) were employed.

[2] = biological target: T1, recombinant human PAI-1 (Homo sapiens, UniProt P05121); test: biochemical
[3] = biological target: T2, recombinant rat PAI-1 (Rattus norvegicus, UniProt P20961); test: biochemical; conditions: read-out: Inhibition Rate of PAI-1 Activity (%)
T2 sequence (P20961 24-402): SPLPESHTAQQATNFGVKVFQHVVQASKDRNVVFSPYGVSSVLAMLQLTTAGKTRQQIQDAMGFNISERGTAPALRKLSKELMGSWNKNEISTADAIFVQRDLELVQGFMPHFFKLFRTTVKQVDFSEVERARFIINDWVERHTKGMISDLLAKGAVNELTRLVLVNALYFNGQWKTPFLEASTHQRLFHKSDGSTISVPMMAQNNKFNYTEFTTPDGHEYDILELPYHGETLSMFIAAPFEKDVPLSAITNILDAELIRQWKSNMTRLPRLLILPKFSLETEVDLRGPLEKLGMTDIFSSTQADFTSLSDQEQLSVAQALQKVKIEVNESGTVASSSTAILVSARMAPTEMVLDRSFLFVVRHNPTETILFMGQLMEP

[4] = biological target: T1, recombinant human PAI-1; test: Test Example 2: Human PAI-1 Inhibitory Activity (pH 7.4 HEPES buffer, 10 minutes incubation with two-chain tPA); type: biochemical; design: purchased Molecular Innovations, Inc; conditions: read-out: Inhibition Rate of PAI-1 Activity (%)
Description: 0.1 M HEPES, 0.1 M NaCl. 1 mM EDTA. 0.1 % Polyethylene glycol 8,000 (Hampton Research Corporation),
2 mM Dimethyldecylphoshine oxide [Apo-10] (Fluka Corporation)

[5] = biological target: T1, recombinant human PAI-1; test: Test Example 4: Human PAI-1 Inhibitory Activity (amount of PAI-1 bound to plate-coated one-chain tPA, ELISA); type: biochemical; design: purchased Molecular Innovations, Inc; conditions: human PAI-1 bound to tPA, read-out: Inhibition Rate of PAI-1 Activity (%); for inhibition at 0.3 µM: Compound Concentration 0.3µM; for inhibition at 1 µM: Compound Concentration 1µM; for inhibition at 3 µM: Compound Concentration 3µM
Summary of the method: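 Compound (final 0.1 to 3.0 µM, 0.2% DMSO) preincubated 15 min on ice with recombinant human PAI-1 (50 ng/ml) in phosphate buffer pH 6.6, then 60 min at room temperature on one-chain tPA-coated plates. Bound PAI-1 detected by anti-PAI-1 antibody, AP-labelled secondary and p-nitrophenyl phosphate at 405 nm; quantified against PAI-1 standard curve, inhibition relative to compound-free PAI-1.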

T1 sequence (P05121 24-402): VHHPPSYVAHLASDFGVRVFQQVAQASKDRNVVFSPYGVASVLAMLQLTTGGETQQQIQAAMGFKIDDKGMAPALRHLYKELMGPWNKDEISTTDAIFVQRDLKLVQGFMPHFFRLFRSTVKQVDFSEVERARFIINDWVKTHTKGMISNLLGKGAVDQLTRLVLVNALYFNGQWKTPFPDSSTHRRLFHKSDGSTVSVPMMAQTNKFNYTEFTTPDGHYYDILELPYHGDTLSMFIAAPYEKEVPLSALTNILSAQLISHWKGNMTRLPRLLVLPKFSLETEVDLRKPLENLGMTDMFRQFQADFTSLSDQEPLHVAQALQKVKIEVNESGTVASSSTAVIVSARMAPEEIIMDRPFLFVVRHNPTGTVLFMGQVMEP

SMILES	Thrombus Weight ([1]; Dose 30 mg/kg/day)	Thrombus Weight ([1]; Dose 10 mg/kg/day)	inhibition at 5 µM ([2]; read-out: Inhibition Rate of PAI Activity (%), Compound Concentration 5µM)	inhibition at 10 µM ([2]; read-out: Inhibition Rate of PAI Activity (%), Compound Concentration 10µM)	inhibition at 0.3 µM [3]	inhibition at 1 µM [3]	inhibition at 3 µM [3]	inhibition at 10 µM [3]	inhibition at 0.1 µM [4]	inhibition at 0.3 µM [4]	inhibition at 1 µM [4]	inhibition at 3 µM [4]	inhibition at 0.3 µM [5]	inhibition at 1 µM [5]	inhibition at 3 µM [5]	inhibition at 5 µM ([2]; read-out: Inhibition Rate of PAI-1 Activity (%), Compound Concentration 5µM)	inhibition at 10 µM ([2]; read-out: Inhibition Rate of PAI-1 Activity (%), Compound Concentration 10µM)
CN(C(=O)C(=O)O)c1cc(-c2ccc(OC(F)(F)F)cc2)ccc1OCc1ccc(C(C)(C)C)cc1 [Compound 17]	60.4 ± 3.8 mg	–	–	–	–	–	–	–	–	–	–	–	–	–	–	–	–
CC(C)(C)c1ccc(COc2ccc(-c3ccc(OC(F)(F)F)cc3)cc2CCC(=O)O)cc1 [Compound 5]	–	57.5 ± 5.0 mg	87%	95%	5%	15%	52%	93%	2%	13%	34%	90%	9%	23%	67%	–	–
CC(C)(C)c1ccc(CN(C(=O)C(=O)O)c2ccc(-c3ccc(OC(F)(F)F)cc3)cc2)cc1 [Compound 129]	–	56.7 ± 3.8 mg	–	–	2%	14%	46%	90%	1%	3%	19%	86%	5%	15%	19%	75%	95%
